System: Plasmodium berghei
Assay: Luciferase/luciferin-expressing antifolate-resistant parasites were used to infect a culture of HepG2 cells that were pre-incubated with compounds. Infected hepatocytes emit light due to the luciferase reaction. Assay results are presented as the percent inhibition of light emission compared to control. […]
Format: functional
Details: sporozoite; for IC90: read-out: LUCIFERASE INFECTION ASSAY - IC90
[1] = read-out: LUCIFERASE INFECTION ASSAY - IC50

| Compound | IC90 [µM] | other results |
| --- | --- | --- |
| COc1ccc(-c2cnc3ccc(NCc4ccc(C)cc4C)nn23)cn1 | 9.01 | IC50 (HEPG2TOX_HILL_SLOPE 9.76, HEPG2TOX_R_SQUARED 0.857, PBLUC_HILL_SLOPE 10.1, PBLUC_R_SQUARED 0.466, read-out: LUCIFERASE INFECTION ASSAY - IC50): 7.25 µM |
| Cc1noc(C)c1C(=O)NNC(=O)c1ccc(Cl)cc1 | > 11.2 | IC50 (PBLUC_HILL_SLOPE 16.2, PBLUC_R_SQUARED 0.359, read-out: LUCIFERASE INFECTION ASSAY - IC50): 11 µM |
| NC(=O)c1ccc(-c2cc(-c3cccc(C(F)(F)F)c3)cnc2N)cc1 | 5.02 | IC50 (PBLUC_HILL_SLOPE 80.6, PBLUC_R_SQUARED 0.104, read-out: LUCIFERASE INFECTION ASSAY - IC50): 4.88 µM |
| COc1ccc(S(=O)(=O)N2CCCCC2)cc1NC(=O)c1nn(CC(C)C)c(=O)c2ccccc12 | 4.38 | IC50 (FFLUC_HILL_SLOPE 27.6, FFLUC_R_SQUARED 0.604, PBLUC_HILL_SLOPE 11.9, PBLUC_R_SQUARED 0.273, read-out: LUCIFERASE INFECTION ASSAY - IC50): 3.64 µM |
| O=[N+]([O-])c1ccc(SCCO)c2nonc12 | 12.8 | IC50 (HEPG2TOX_HILL_SLOPE 4.76, HEPG2TOX_R_SQUARED 0.8, PBLUC_HILL_SLOPE 15.1, PBLUC_R_SQUARED 0.318, read-out: LUCIFERASE INFECTION ASSAY - IC50): 11 µM |
| O=C(Nc1cccc(Cl)c1)Nc1nc2ccccc2[nH]1 | > 10 | IC50 [1]: > 10 µM |
| COc1ccc(-c2cnc3ccc(NCc4ccccn4)nn23)cc1OC | 5.88 | IC50 (HEPG2TOX_HILL_SLOPE 0.427, HEPG2TOX_R_SQUARED 0.871, PBLUC_HILL_SLOPE 2.47, PBLUC_R_SQUARED 0.694, read-out: LUCIFERASE INFECTION ASSAY - IC50): 2.41 µM |
| O=c1c2ccccc2ncn1CCOCCOc1ccccc1-c1ccccc1 | > 8.54 | IC50 (HEPG2TOX_HILL_SLOPE 7.75, HEPG2TOX_R_SQUARED 0.123, read-out: LUCIFERASE INFECTION ASSAY - IC50): > 8.54 µM |
| COC(=O)c1cc(N/N=C2\C=CC(=O)c3ncccc32)cc(C(=O)OC)c1 | 3.38 | IC50 (FFLUC_HILL_SLOPE 11, FFLUC_R_SQUARED 0.42, HEPG2TOX_HILL_SLOPE 0.866, HEPG2TOX_R_SQUARED 0.908, PBLUC_HILL_SLOPE 2.75, PBLUC_R_SQUARED 0.794, read-out: LUCIFERASE INFECTION ASSAY - IC50): 1.52 µM |
| Cc1cc(C(C)(C)C)cc(C)c1COC(=O)c1cccnc1 | > 10 | IC50 (HEPG2TOX_HILL_SLOPE 2.37, HEPG2TOX_R_SQUARED 0.0156, PBLUC_HILL_SLOPE 8.85, PBLUC_R_SQUARED 0.304, read-out: LUCIFERASE INFECTION ASSAY - IC50): 8.03 µM |
| Clc1ccc(/C=C/c2cnc3ccccc3n2)cc1 | > 12.4 | IC50 (PBLUC_HILL_SLOPE 0.854, PBLUC_R_SQUARED 0.483, read-out: LUCIFERASE INFECTION ASSAY - IC50): 2.04 µM |
| CC(C)Nc1nc(NCC2CCCCC2)c2sccc2n1 | > 10.8 | IC50 (FFLUC_HILL_SLOPE 8.35, FFLUC_R_SQUARED 0.136, PBLUC_HILL_SLOPE 0.461, PBLUC_R_SQUARED 0.456, read-out: LUCIFERASE INFECTION ASSAY - IC50): 1.8 µM |
| CN(C)CCNCCCOc1ccc(C(C)(C)c2ccccc2)cc1 | > 10 | IC50 (FFLUC_HILL_SLOPE 2.11, FFLUC_R_SQUARED 0.273, PBLUC_HILL_SLOPE 1.18, PBLUC_R_SQUARED 0.227, read-out: LUCIFERASE INFECTION ASSAY - IC50): 5.92 µM |
| CCn1c(-c2ccccc2)c(C(=O)CSc2nnc(N)[nH]2)c2ccccc21 | > 10 | IC50 (FFLUC_HILL_SLOPE 0.751, FFLUC_R_SQUARED 0.0256, read-out: LUCIFERASE INFECTION ASSAY - IC50): > 10 µM |
| CN1CCN(c2nc(-c3c[nH]c4ccccc34)c(-c3ccccc3)s2)CC1 | > 10 | IC50 (PBLUC_HILL_SLOPE 45.6, PBLUC_R_SQUARED 0.243, read-out: LUCIFERASE INFECTION ASSAY - IC50): 9.92 µM |
| CC(=O)Nc1ncc2c(Cl)cccc2n1 | > 14.9 | IC50 (HEPG2TOX_HILL_SLOPE 2.36, HEPG2TOX_R_SQUARED 0.885, PBLUC_HILL_SLOPE 2.93, PBLUC_R_SQUARED 0.162, read-out: LUCIFERASE INFECTION ASSAY - IC50): 7.84 µM |
| Cc1onc(-c2c(F)cccc2Cl)c1C(=O)ON=C1C2CC3CC(C2)CC1C3 | 4.84 | IC50 (PBLUC_HILL_SLOPE 4.6, PBLUC_R_SQUARED 0.401, read-out: LUCIFERASE INFECTION ASSAY - IC50): 3 µM |
| CNc1snc(C)c1C(=O)OCCOc1ccccc1C(C)=O | 7.06 | IC50 (HEPG2TOX_HILL_SLOPE 1.35, HEPG2TOX_R_SQUARED 0.846, PBLUC_HILL_SLOPE 3.65, PBLUC_R_SQUARED 0.5, read-out: LUCIFERASE INFECTION ASSAY - IC50): 3.86 µM |
| CC(Sc1nc2ccccc2c(=O)n1CCN(C(C)C)C(C)C)C(N)=O (stereo unspecified) | > 10 | IC50 (PBLUC_HILL_SLOPE 1.51, PBLUC_R_SQUARED 0.457, read-out: LUCIFERASE INFECTION ASSAY - IC50): 6.73 µM |

| Compound | IC90 [µM] | other results |
| --- | --- | --- |
| COc1ccc(C(N)c2csc(NC(=O)Nc3cccc(C#N)c3)n2)cc1 (stereo unspecified) | 3.43 | IC50 (PBLUC_HILL_SLOPE 15.3, PBLUC_R_SQUARED 0.483, read-out: LUCIFERASE INFECTION ASSAY - IC50): 2.97 µM |
| Cc1nc(NC(=O)CCc2c[nH]c3ccccc23)sc1-c1ccccn1 | 3.51 | IC50 (HEPG2TOX_HILL_SLOPE 2, HEPG2TOX_R_SQUARED 0.799, PBLUC_HILL_SLOPE 14.5, PBLUC_R_SQUARED 0.715, read-out: LUCIFERASE INFECTION ASSAY - IC50): 3.02 µM |
| O=C(COC(=O)/C=C/c1ccc(I)o1)Nc1cc(S(=O)(=O)N2CCCCC2)ccc1Cl | > 10 | IC50 (FFLUC_HILL_SLOPE 7.36, FFLUC_R_SQUARED 0.327, read-out: LUCIFERASE INFECTION ASSAY - IC50): > 10 µM |
| CN1CCN(c2ccc(Cl)cc2NC(=O)Nc2cc(Cl)ccc2N2CCN(C)CC2)CC1 | 3.56 | IC50 (HEPG2TOX_HILL_SLOPE 4.19, HEPG2TOX_R_SQUARED 0.986, PBLUC_HILL_SLOPE 15.5, PBLUC_R_SQUARED 0.444, read-out: LUCIFERASE INFECTION ASSAY - IC50): 3.09 µM |
| CCOc1ncccc1C(=O)N(C)Cc1cn(-c2ccccc2)nc1-c1ccccc1 | 5.34 | IC50 [1]: 4.36 µM |
| Cc1csc2nc(CNC(c3ccc(C4CCCCC4)cc3)C(C)C)cc(=O)n12 (stereo unspecified) | 4.73 | IC50 (PBLUC_HILL_SLOPE 9.21, PBLUC_R_SQUARED 0.523, read-out: LUCIFERASE INFECTION ASSAY - IC50): 3.73 µM |
| CC(=O)O[C@H]1CC[C@]23C(=O)O[C@]45CC[C@H](C6=CC(=O)OC6)[C@@]4(C)CCC2C5CC[C@]3(O)C1 | 0.747 | IC50 (HEPG2TOX_HILL_SLOPE 2.43, HEPG2TOX_R_SQUARED 0.931, PBLUC_HILL_SLOPE 2.64, PBLUC_R_SQUARED 0.666, read-out: LUCIFERASE INFECTION ASSAY - IC50): 0.325 µM |
| CCOc1ccc(Oc2ccc(S(=O)(=O)N(C)C3CCN(CC)CC3)cc2)cc1 | > 10 | IC50 [1]: > 10 µM |
| O=C(Nc1cc(C(F)(F)F)cc(C(F)(F)F)c1)c1cnn(-c2ccccc2)c1C(F)(F)F | > 7.06 | IC50 [1]: > 7.06 µM |
| Cn1nc(-c2ccccc2)c(/C=N/O)c1Sc1ccc(C(C)(C)C)cc1 | > 9.03 | IC50 (FFLUC_HILL_SLOPE 15.8, FFLUC_R_SQUARED 0.096, HEPG2TOX_HILL_SLOPE 2.21, HEPG2TOX_R_SQUARED 0.952, PBLUC_HILL_SLOPE 13.8, PBLUC_R_SQUARED 0.121, read-out: LUCIFERASE INFECTION ASSAY - IC50): 8.79 µM |
| COc1ccc(C(NS(=O)(=O)c2ccc(-n3ncc(Cl)c(Cl)c3=O)cc2)C(C)C)cc1 (stereo unspecified) | 2.38 | IC50 (HEPG2TOX_HILL_SLOPE 9.92, HEPG2TOX_R_SQUARED 0.979, PBLUC_HILL_SLOPE 3.67, PBLUC_R_SQUARED 0.728, read-out: LUCIFERASE INFECTION ASSAY - IC50): 1.31 µM |
| CNc1cc(C(C)C)nc2c(-c3ccccc3)cnn12 | > 12.4 | IC50 (PBLUC_HILL_SLOPE 1.1, PBLUC_R_SQUARED 0.428, read-out: LUCIFERASE INFECTION ASSAY - IC50): 9.54 µM |
| COc1ccc(NC(=O)Nc2ccc3nc(-c4ccccc4OC)nn3c2)cc1OC | > 10 | IC50 [1]: > 10 µM |
| CCC1c2ccsc2CCN1Cc1cc(=O)n2cc(Cl)ccc2n1 (stereo unspecified) | > 10 | IC50 [1]: > 10 µM |
| O=C(NNC(=S)Nc1ccc(Cl)c(Cl)c1)c1cccnc1Oc1ccccc1 | > 7.62 | IC50 [1]: > 7.62 µM |
| CC(C)n1c(Sc2ncc([N+](=O)[O-])s2)nc2ccccc21 | 4.36 | IC50 (FFLUC_HILL_SLOPE 5.73, FFLUC_R_SQUARED 0.583, HEPG2TOX_HILL_SLOPE 3.25, HEPG2TOX_R_SQUARED 0.992, PBLUC_HILL_SLOPE 9.74, PBLUC_R_SQUARED 0.283, read-out: LUCIFERASE INFECTION ASSAY - IC50): 3.48 µM |
| Fc1ccc(CSc2nc(CSc3ccc(Cl)cc3)cc(Sc3ccc(Cl)cc3)n2)cc1 | > 6.35 | IC50 (FFLUC_HILL_SLOPE 2.29, FFLUC_R_SQUARED 0.432, read-out: LUCIFERASE INFECTION ASSAY - IC50): > 6.35 µM |
| CCOC(=O)c1sc2nc(CSc3ccccc3)nc(NCC(O)CN(C)C)c2c1C (stereo unspecified) | > 10 | IC50 (HEPG2TOX_HILL_SLOPE 7.33, HEPG2TOX_R_SQUARED 0.474, PBLUC_HILL_SLOPE 9.13, PBLUC_R_SQUARED 0.72, read-out: LUCIFERASE INFECTION ASSAY - IC50): 9.05 µM |
| CC(C)(Oc1ccc(Cl)cc1)C(=O)Nc1ccc(F)c(S(=O)(=O)N2CCOCC2)c1 | > 10 | IC50 [1]: > 10 µM |

— ChEMBL document CHEMBL4483862, “Open-source discovery of chemical leads for next-generation chemoprotective antimalarials” (2018)
